Earlier results, collected in article PMC9516332 (Frontiers in Oncology, 2022).
Like-named read-outs stand apart in the source and are kept apart here.

Key:
Details in all cases: cited from earlier work
[1] = target: panel of 255 wild-type kinases (Homo sapiens, UniProt P14616)
[2] = target: T1, panel of 255 wild-type kinases (Homo sapiens, UniProt Q06418)
T1 sequence (Q06418 41-890): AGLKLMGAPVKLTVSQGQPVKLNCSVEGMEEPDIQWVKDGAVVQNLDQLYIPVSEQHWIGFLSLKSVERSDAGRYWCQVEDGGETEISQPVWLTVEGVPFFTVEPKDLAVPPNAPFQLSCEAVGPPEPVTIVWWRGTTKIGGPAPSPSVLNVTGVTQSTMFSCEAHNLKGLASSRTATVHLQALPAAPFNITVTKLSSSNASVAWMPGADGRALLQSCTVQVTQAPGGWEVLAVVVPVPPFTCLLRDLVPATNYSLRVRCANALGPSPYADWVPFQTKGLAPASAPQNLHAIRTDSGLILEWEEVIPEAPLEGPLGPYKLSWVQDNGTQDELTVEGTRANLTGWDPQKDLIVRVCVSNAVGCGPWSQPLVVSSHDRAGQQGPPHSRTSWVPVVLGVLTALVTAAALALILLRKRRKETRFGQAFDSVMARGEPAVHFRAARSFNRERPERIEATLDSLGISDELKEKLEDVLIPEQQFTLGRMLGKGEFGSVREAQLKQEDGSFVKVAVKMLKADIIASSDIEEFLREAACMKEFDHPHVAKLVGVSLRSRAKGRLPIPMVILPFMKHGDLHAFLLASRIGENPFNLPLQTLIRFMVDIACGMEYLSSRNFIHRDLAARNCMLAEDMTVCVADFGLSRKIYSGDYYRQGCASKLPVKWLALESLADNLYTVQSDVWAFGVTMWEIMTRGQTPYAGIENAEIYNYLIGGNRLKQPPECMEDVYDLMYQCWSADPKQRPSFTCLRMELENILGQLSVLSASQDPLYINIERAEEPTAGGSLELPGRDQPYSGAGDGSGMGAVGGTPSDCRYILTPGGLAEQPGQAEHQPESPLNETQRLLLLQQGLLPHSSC

[3] = target: panel of 255 wild-type kinases (Homo sapiens, UniProt P19784)
[4] = target: T2, panel of 255 wild-type kinases (Homo sapiens, UniProt O15111)
T2 sequence (O15111 1-745): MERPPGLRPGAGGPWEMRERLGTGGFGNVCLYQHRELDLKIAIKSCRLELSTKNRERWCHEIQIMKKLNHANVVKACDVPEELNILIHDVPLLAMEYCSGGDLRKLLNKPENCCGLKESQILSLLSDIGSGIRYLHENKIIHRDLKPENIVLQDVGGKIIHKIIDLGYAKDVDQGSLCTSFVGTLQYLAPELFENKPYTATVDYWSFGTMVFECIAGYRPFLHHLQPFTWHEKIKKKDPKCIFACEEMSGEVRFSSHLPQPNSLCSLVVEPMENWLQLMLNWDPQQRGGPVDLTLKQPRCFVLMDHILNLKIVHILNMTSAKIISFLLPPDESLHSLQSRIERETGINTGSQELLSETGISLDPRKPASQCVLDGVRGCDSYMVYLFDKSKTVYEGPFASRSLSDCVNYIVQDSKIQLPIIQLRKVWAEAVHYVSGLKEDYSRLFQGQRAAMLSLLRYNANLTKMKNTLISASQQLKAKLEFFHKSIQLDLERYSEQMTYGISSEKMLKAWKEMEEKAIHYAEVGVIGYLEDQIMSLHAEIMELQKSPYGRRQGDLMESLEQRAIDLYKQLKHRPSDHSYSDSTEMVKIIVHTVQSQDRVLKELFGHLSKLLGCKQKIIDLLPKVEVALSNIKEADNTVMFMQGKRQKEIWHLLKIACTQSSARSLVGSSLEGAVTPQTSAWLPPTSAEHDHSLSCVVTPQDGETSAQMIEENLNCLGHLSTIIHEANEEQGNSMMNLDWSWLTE

[5] = target: panel of 255 wild-type kinases (Homo sapiens, UniProt P27448)
[6] = target: panel of 255 wild-type kinases (Homo sapiens, UniProt Q16288)
[7] = target: panel of 255 wild-type kinases (Homo sapiens, UniProt Q14012)
[8] = target: panel of 255 wild-type kinases (Homo sapiens, UniProt O75116)
[9] = target: panel of 255 wild-type kinases (Homo sapiens, UniProt Q04912)
[10] = target: panel of 255 wild-type kinases (Homo sapiens, UniProt O94804)
[11] = target: panel of 255 wild-type kinases (Homo sapiens, UniProt Q9UM73)
[12] = target: panel of 255 wild-type kinases (Homo sapiens, UniProt O95819)
[13] = kinase IRR, 1 µmol/L single concentration, ref DOI: 10.1158/1535-7163.MCT-18-0877
[14] = kinase TYRO3, 1 µmol/L single concentration, ref DOI: 10.1158/1535-7163.MCT-18-0877
[15] = kinase CK2α2/β, 1 µmol/L single concentration, ref DOI: 10.1158/1535-7163.MCT-18-0877
[16] = kinase IKKα, 1 µmol/L single concentration, ref DOI: 10.1158/1535-7163.MCT-18-0877
[17] = MARK3, 1 µmol/L single concentration, ref DOI: 10.1158/1535-7163.MCT-18-0877
[18] = kinase TRKC, 1 µmol/L single concentration, ref DOI: 10.1158/1535-7163.MCT-18-0877
[19] = CaMK1α kinase assay, 1 µmol/L single concentration, ref DOI: 10.1158/1535-7163.MCT-18-0877
[20] = kinase ROCK2, 1 µmol/L single concentration, ref DOI: 10.1158/1535-7163.MCT-18-0877
[21] = kinase RON, 1 µmol/L single concentration, ref DOI: 10.1158/1535-7163.MCT-18-0877
[22] = kinase LOK, 1 µmol/L single concentration, ref DOI: 10.1158/1535-7163.MCT-18-0877
[23] = ALK kinase assay, 1 µmol/L single concentration, ref DOI: 10.1158/1535-7163.MCT-18-0877
[24] = kinase HGK, 1 µmol/L single concentration, ref DOI: 10.1158/1535-7163.MCT-18-0877

Row | Compound | %-inhibition at 1 µmol/L, IRR [1, 13] [%] | %-inhibition at 1 µmol/L, TYRO3 [2, 14] [%] | %-inhibition at 1 µmol/L, CK2α2/β [3, 15] [%] | %-inhibition at 1 µmol/L, IKKα [4, 16] [%] | %-inhibition, MARK3 [5, 17] [%] | %-inhibition at 1 µmol/L, TRKC [6, 18] [%] | %-inhibition CaMK1α [7, 19] [%] | %-inhibition at 1 µmol/L, ROCK2 [8, 20] [%] | %-inhibition at 1 µmol/L, RON [9, 21] [%] | %-inhibition at 1 µmol/L, LOK [10, 22] [%] | %-inhibition ALK [11, 23] [%] | %-inhibition at 1 µmol/L, HGK [12, 24] [%] | other results
1 | C=CC(=O)Nc1cc(Nc2nccc(-c3cn(C)c4ccccc34)n2)c(OC)cc1N(C)CCN(C)C [osimertinib] | 77 | 8 | 16 | 5 | 9 | -1.61 | 10 | 6.54 | 5.69 | 42 | 99 | 80 | –
2 | COc1cc(N2CCC(N3CCN(C)CC3)CC2)ccc1Nc1ncc(Cl)c(Nc2ccccc2P(C)(C)=O)n1 [brigatinib] | – | – | – | – | – | – | – | – | – | – | – | – | %-inhibition at 1 µmol/L, IRR [1]: 99%; %-inhibition at 1 µmol/L, TYRO3 [2]: 27%; %-inhibition at 1 µmol/L, CK2α2/β [3]: -4%; %-inhibition at 1 µmol/L, IKKα [4]: -0.856%; %-inhibition, MARK3 [5]: 99%; %-inhibition at 1 µmol/L, TRKC [6]: 53%; %-inhibition CaMK1α [7]: 28%; %-inhibition at 1 µmol/L, ROCK2 [8]: 30%; %-inhibition at 1 µmol/L, RON [9]: 18%; %-inhibition at 1 µmol/L, LOK [10]: 96%; %-inhibition ALK [11]: 100%; %-inhibition at 1 µmol/L, HGK [12]: 18%
3 | C=CC(=O)N1CCC[C@@H](n2nc(-c3ccc(Oc4ccccc4)cc3)c3c(N)ncnc32)C1 [ibrutinib] | 12 | 12 | -7 | 4.34 | -6 | 24 | 14 | 3.74 | 7 | 24 | 5.45 | -0.0249 | –
